Results on three compounds are retold here after ChEMBL document CHEMBL5244247, “Natural and synthetic coumarins as antileishmanial agents: A review” (Eur J Med Chem, 2020).

Data set [1] concerns Leishmania braziliensis. Description: Antileishmanial activity against promastigote form of Leishmania braziliensis. In kind it is functional, organism-based.
Data set [2] deals with Leishmania amazonensis. Description: Antileishmanial activity against promastigote form of Leishmania amazonensis assessed as parasite growth inhibition incubated for 72 hrs by regression analysis. In kind it is functional, organism-based.
Data set [3] deals with Leishmania amazonensis. Description: Antileishmanial activity against amastigote form of Leishmania amazonensis assessed as parasite growth inhibition incubated for 72 hrs by regression analysis. Type of data set: functional, organism-based.
The test system of data set [4] is Leishmania braziliensis. The experiment in a line: Antileishmanial activity against amastigote form of Leishmania braziliensis. In kind it is functional.
Data set [5] deals with Leishmania amazonensis. Description: Antileishmanial activity against intracellular Leishmania amazonensis MHOM/BR/75/Josefa amastigotes infected in BALB/c mouse peritoneal macrophages assessed as parasite growth inhibition incubated for 24 hrs by regression analysis. Type of data set: functional, organism-based. The note with it: Peritoneal macrophage.
Data set [6] is described as follows: Selectivity index, ratio of CC50 for cytotoxicity against mouse J774G8 cells to IC50 for antileishmanial activity against intracellular Leishmania amazonensis MHOM/BR/75/Josefa amastigotes infected in BALB/c mouse peritoneal macrophages. The note with it: read-out: Ratio CC50/IC50. In kind it is toxicity, cell-based.
Data set [7] deals with Leishmania panamensis. The experiment in a line: Antileishmanial activity against intracellular Leishmania panamensis amastigotes infected in human U-937 cells assessed as inhibition at 20 ug/mL incubated for 72 hrs by flow cytometry relative to control. Type of data set: functional.
Data set [8] relates to Leishmania panamensis. Description: Antileishmanial activity against intracellular Leishmania panamensis amastigotes infected in human U-937 cells assessed as inhibition incubated for 72 hrs by flow cytometry. In kind it is functional, organism-based. As to conditions: U-937, 72 h. Background: A flow cytometer gives signals particle by particle.
Another data set has as its system Leishmania major. The experiment in a line: Antileishmanial activity against promastigote form of Leishmania major assessed as inhibition incubated for 48 hrs by MTT assay. In kind it is functional, organism-based. (Formazan colour is commonly taken as a measure of viable cells.)

For orientation: IC50 means the concentration needed to halve the response being measured. By inhibition is commonly meant the relative decrease from the control value, in per cent.

≈ marks a conversion by molar mass, not a printed value. Where “and” joins values, the source holds several entries; their conditions need not be identical. Equal values may be shown once.

Regarding `CCC(C)C(=O)c1c(O)c(CC=C(C)C)c(O)c2c(-c3ccccc3)cc(=O)oc12` (stereo not given), the LD50 in the data set on Leishmania braziliensis [1] was 23.2 µg/mL and 60 µg/mL; with Leishmania braziliensis [4], 22 µg/mL. Besides, the IC50 with Leishmania amazonensis [2] was 3 µg/mL and 7.4 µM; with Leishmania amazonensis [3], 0.88 µg/mL (≈ 2.16 µM); in the data set with Leishmania amazonensis [5], 14.3 µM. Further, the LC50 in the data set on Leishmania braziliensis [4] (Leishmania braziliensis, read-out: LD50 (the source's name)) was 29 µg/mL (≈ 71.3 µM). Besides, the selectivity ratio in [6] was 4.4.
For `Cc1cc(=O)oc2cc(OCCCCOc3cc(Cl)ccc3Oc3ccc(Cl)cc3Cl)ccc12`, the inhibition at 20 µg/mL with Leishmania panamensis [7] is 57.1%. For the same compound, the IC50 in the data set on Leishmania panamensis [8] is 53.1 µM.
Regarding `O=c1oc2ccc(/N=C/c3ccco3)cc2cc1-c1ccc2c(c1)OCO2`, the IC50 with Leishmania major was 223 µM.
